Experiments:
KM12-luc cells = assay: Cell proliferation assay (KM12); settings: 72 hours exposure, read-out: IC50 (nM) Cell-based assay (KM12)
Procedure: (§1) Doxorubicin was purchased from Sigma Aldrich (D1515). All compounds were diluted in DMSO (Sigma Aldrich, D2650). AlamarBlue® cell viability reagent was purchased from Thermo Scientific (88952). CellTiter 96® AQueous One Solution Cell proliferation assay was purchased from Promega. KM12-luc cells were obtained from JCRB (National Institute of Health Sciences, Tokyo, Japan). They were maintained in DMEM medium (GIB-11965-118) supplemented with 10% fetal bovine serum (Gibco, 16000-044) and MEM Non-Essential Amino Acids Solution (Thermo Scientific, 11140-050). TF-1 cells were obtained from ATCC. They were maintained in RPMI medium (GIB-A10491) supplemented with 10% fetal bovine serum (Gibco, 16000-044), GM-CSF (Thermo Scientific, 11140-050), and β-NGF (R&D systems). Trypsin/EDTA was purchased from Gibco (GIB-25300-054, 0.05%). 96-well plates were purchased from Corning Inc.
(§2) The proliferation assay was performed for Chemical Compounds 1-61 s in media supplemented with 10% FBS, using AlamarBlue® cell viability reagent or CellTiter 96® AQueous One Solution Cell proliferation assay kit. Cells were cultured in humidified 37° C. incubator with 5% CO2. To evaluate the antiproliferation activity of compounds, TF-1 cells were adjusted to GM-CSF free media (RPMI, 10% FBS, and 1% penicillin-streptomycin) for 16 hr and were seeded in 96-well plates at 30,000 cells/well with medium (RPMI, 10% FBS, 1% penicillin-streptomycin and 10 ng/ml human β-NGF). KM12-luc were seeded at 10,000 cells per well into 96-well plates. After overnight incubation, serial dilutions of compounds were added to triplicate wells, and cells were exposed for 72 hours. The final concentration of DMSO was adjusted to 0.5% in media. Quantitation of cell growth was assessed using two kinds of reagent. 20 ul of AlamarBlue® reagent in an amount equal to 10% of the culture volume was added to each well and were incubated in humidified 37° C. incubator with 5% CO2 for 2 hr. Otherwise, 20 ul of CellTiter 96® reagent was added to each well and were incubated in the same conditions as previously described. Data were plotted, and GI50 values were calculated using GraphPad software. Table 1 below includes the results of the assays.

TRK A, B & C kinase = target: T1, TRK A, B & C kinase; assay: TRK A, B & C kinase assay (ADP-Glo / HTRF KinEASE-TK); assay type: biochemical; settings: ADP-Glo or HTRF KinEASE-TK kit, isoform not specified, read-out: IC50 (nM) Enzymatic assay
T1 construct: fused on or other part: Carna's Trk kinases are usually GST-tagged cytoplasmic domains
Procedure: ADP-Glo assay kit was purchased from Promega. poly (Glu, Tyr), Magnesium sulfate, Bovine serum albumin (BSA) and dimethylsulfoxide(DMSO) were purchased from Sigma-Aldrich. Tris-HCl buffer was purchased from BD Gentest. HTRF KinEASE-TK kit was purchased from cisbio. TRK A, B & C kinase was purchased from Carna bioscience.
Kinase assay was performed for Chemical Compounds 1-61 using two methods using luminescent ADP-Glo assay kit (Promega) and HTRF KinEASE-TK assay kit (cisbio). The luminescent ADP-Glo assay kit (Promega) measures ADP formed from a kinase reaction. ADP converted into ATP, which is then converted into light by Ultra-Glo luciferase. The HTRF KinEASE-TK assay kit (cisbio) measures tyrosine kinase activities using one substrate and a universal detection system.
ADP-Glo Assay Kit (Promega)
The protein kinase assay was performed for Chemical Compounds 1-61 at […] concentrations are 0.4 ng/ul of TrKA, 0.5 ng/ul of TrKB and 3 ng/ul of TrKC, respectively), 5 μL of 1 ug/ul stock solution of poly(glu, Tyr), 5 μL of compounds or assay buffer, 5 μL of ATP (125 μM stock solution).
The assay was started by incubating the reaction mixture in a 96-well plate at 30° C. for 1 hr. After the incubation, the assay was terminated by the addition of 25 […] Detection Reagent was added, and the 96-well plate was shaken and then incubated for additional 30 min at ambient temperature. The 96-well reaction plate was then read on an Enspire plate reader. The IC50 values were derived through a curve fitting using SigmaPlot.
HTRF KinEASE-TK Assay Kit (Cisbio)
The HTRF KinEASE-TK assay was performed for Chemical Compounds 1-61 in 384-well low volume microplate (Greiner). The HTRF KinEASE-TK assay format involves the two steps. The first step is kinase reaction step. This kinase reaction step was performed at RT (room temperature) in final volume of 10 ul according to the following assay reaction recipe: 10 ul of kinase mixture (Kinase (2 ul)+ATP (2 ul)+Substrate (2 ul)+Compound (4 ul)). Kinase final concentrations were 0.3 ng/ul of TRKA, 0.1 ng/ul of TRKB, 0.03 ng/ul of TRKC, respectively. ATP final concentrations were 14.7 uM (TRKA), 4.77 uM (TRKB), 25.6 uM (TRKC) respectively. TK-substrate final concentration was 0.3 ng/ul. The mixtures exposed to Dose response concentration (DRC) compound from 0 to 100 nM for 40 min. During the kinase reaction step, the kinase reaction was started by the addition of ATP. Kinase phosphorylates the substrate.
The second is detection step. 10 ul of detection reagents (5 ul Sa-XL 665 in EDTA+5 ul TK Antibody-Eu in EDTA) was added to kinase mixture. This step was performed at room temperature for 1 hr. The detection reagent detects phosphorylated substrates.
Finally 384-well reaction plate was then read on FlexStation 3 machine. The fluorescence was measured at 620 nm (Cryptate) and 665 nm (XL665). A ratio is calculated ([…]/620)×10^4 for each well. The IC50 value was derived through a curve fitting using GraphPad Prism. Table 1 below includes the results of the assays.

TF-1 cells = assay: Cell proliferation assay (TF-1); settings: 10 ng/ml human β-NGF, 72 hours exposure, read-out: IC50 (nM) Cell-based assay (TF-1)
Procedure: as §1, §2

For `CC(C)(C)c1nnc(-c2cnn3ccc(N4CCCC4c4cncc(F)c4)nc23)o1` (stereo not drawn) [Chemical Compound 16, 2-tert-butyl-5-(5-(2-(5-fluoropyridin-3-yl)pyrrolidin-1-yl)pyrazolo[1,5-a]pyrimidin-3-yl)-1,3,4-oxadiazole], which IC50 (KM12-luc cells) is on record?
Its IC50 is under 100 nM.

What about the IC50 (TRK A, B & C kinase) of the same compound?
The IC50 was under 10 nM.

And the IC50 (TF-1 cells)?
Its IC50 is under 100 nM.

For `CC(C)c1nnc(-c2cnn3ccc(N4CCC[C@@H]4c4cncc(F)c4)nc23)s1` [Chemical Compound 17, (R)-2-(5-(2-(5-fluoropyridin-3-yl)pyrrolidin-1-yl)pyrazolo[1,5-a]pyrimidin-3-yl)-5-isopropyl-1,3,4-thiadiazole], which IC50 (KM12-luc cells) is on record?
The IC50 was under 10 nM.

And the IC50 (TRK A, B & C kinase)?
The IC50 was under 10 nM.

And the IC50 (TF-1 cells)?
Its IC50 is under 10 nM.

How did the IC50 (KM12-luc cells) turn out when `CC(C)(C)c1nnc(-c2cnn3ccc(N4C[C@@H](F)C[C@@H]4c4cc(F)ccc4F)nc23)o1` [Chemical Compound 26, 2-tert-butyl-5-(5-((2R,4S)-2-(2,5-difluorophenyl)-4-fluoropyrrolidin-1-yl)pyrazolo[1,5-a]pyrimidin-3-yl)-1,3,4-oxadiazole] was run?
The IC50 was under 10 nM.

What about the IC50 (TRK A, B & C kinase) of the same compound?
Its IC50 is under 10 nM.

What about the IC50 (TF-1 cells) of the same compound?
The IC50 was under 10 nM.

What does the source list for `CC(C)(C)c1nnc(-c2cnn3ccc(N4C[C@@H](F)C[C@H]4c4cc(F)ccc4F)nc23)o1` [Chemical Compound 27, 2-tert-butyl-5-(5-((2S,4S)-2-(2,5-difluorophenyl)-4-fluoropyrrolidin-1-yl)pyrazolo[1,5-a]pyrimidin-3-yl)-1,3,4-oxadiazole]?
IC50 (KM12-luc cells): > 1000 nM; IC50 (TRK A, B & C kinase): > 100 nM; IC50 (TF-1 cells): > 1000 nM

For `COc1ncc(F)cc1C1CCCN1c1ccn2ncc(-c3nnc(C(C)(C)C)o3)c2n1` (stereo not drawn) [Chemical Compound 28, 2-tert-butyl-5-(5-(2-(5-fluoro-2-methoxypyridin-3-yl)pyrrolidin-1-yl)pyrazolo[1,5-a]pyrimidin-3-yl)-1,3,4-oxadiazole], which IC50 (KM12-luc cells) is on record?
The IC50 was under 10 nM.

And the IC50 (TRK A, B & C kinase)?
The IC50 was under 10 nM.

What about the IC50 (TF-1 cells) of the same compound?
Its IC50 is under 10 nM.

For `Fc1ccc(F)c(C2CCCN2c2ccn3ncc(-c4cnco4)c3n2)c1` (stereo not drawn) [Chemical Compound 29, 5-(5-(2-(2,5-difluorophenyl)pyrrolidin-1-yl)pyrazolo[1,5-a]pyrimidin-3-yl)oxazole], which IC50 (KM12-luc cells) is on record?
The IC50 was under 100 nM.

What about the IC50 (TRK A, B & C kinase) of the same compound?
Its IC50 is under 10 nM.

And the IC50 (TF-1 cells)?
Its IC50 is under 100 nM.

Which IC50 (KM12-luc cells) does the source give for `Fc1ccc(F)c(C2CCCN2c2ccn3ncc(-c4cnoc4)c3n2)c1` (stereo not drawn) [Chemical Compound 30, 4-(5-(2-(2,5-difluorophenyl)pyrrolidin-1-yl)pyrazolo[1,5-a]pyrimidin-3-yl)isoxazole] here?
Its IC50 is under 100 nM.

And the IC50 (TRK A, B & C kinase)?
The IC50 was under 10 nM.

What about the IC50 (TF-1 cells) of the same compound?
The IC50 was under 100 nM.

With `Cc1noc(C)c1-c1cnn2ccc(N3CCCC3c3cc(F)ccc3F)nc12` (stereo not drawn) [Chemical Compound 31, 4-(5-(2-(2,5-difluorophenyl)pyrrolidin-1-yl)pyrazolo[1,5-a]pyrimidin-3-yl)-3,5-dimethylisoxazole] as the compound, how does the IC50 (KM12-luc cells) read?
The IC50 was under 1000 nM.

And the IC50 (TRK A, B & C kinase)?
The IC50 was under 100 nM.

What about the IC50 (TF-1 cells) of the same compound?
The IC50 was under 1000 nM.

Which IC50 (KM12-luc cells) does the source give for `Cc1nnc(-c2cnn3ccc(N4CCCC4c4cc(F)ccc4F)nc23)[nH]1` (stereo not drawn) [Chemical Compound 32, 5-(2-(2,5-difluorophenyl)pyrrolidin-1-yl)-3-(5-methyl-1H-1,2,4-triazol-3-yl)pyrazolo[1,5-a]pyrimidine] here?
The IC50 was under 100 nM.

What about the IC50 (TRK A, B & C kinase) of the same compound?
Its IC50 is under 10 nM.

What about the IC50 (TF-1 cells) of the same compound?
The IC50 was under 100 nM.

`CCNC(=O)/C=C/c1cnn2ccc(N3CCCC3c3cncc(F)c3)nc12` (stereo not drawn) [Chemical Compound 38, (E)-N-ethyl-3-(5-(2-(5-fluoropyridin-3-yl)pyrrolidin-1-yl)pyrazolo[1,5-a]pyrimidin-3-yl)acrylamide] was tested. Which IC50 (KM12-luc cells) did it give?
Its IC50 is under 1000 nM.

What about the IC50 (TRK A, B & C kinase) of the same compound?
Its IC50 is under 10 nM.

And the IC50 (TF-1 cells)?
Its IC50 is under 1000 nM.

For `O=C(/C=C/c1cnn2ccc(N3CCCC3c3cncc(F)c3)nc12)NC1CC1` (stereo not drawn) [Chemical Compound 39, (E)-N-cyclopropyl-3-(5-(2-(5-fluoropyridin-3-yl)pyrrolidin-1-yl)pyrazolo[1,5-a]pyrimidin-3-yl)acrylamide], which IC50 (KM12-luc cells) is on record?
Its IC50 is under 1000 nM.

What about the IC50 (TRK A, B & C kinase) of the same compound?
Its IC50 is under 10 nM.

And the IC50 (TF-1 cells)?
The IC50 was under 1000 nM.

Which IC50 (KM12-luc cells) does the source give for `CN(C)C(=O)/C=C/c1cnn2ccc(N3CCCC3c3cncc(F)c3)nc12` (stereo not drawn) [Chemical Compound 40, (E)-3-(5-(2-(5-fluoropyridin-3-yl)pyrrolidin-1-yl)pyrazolo[1,5-a]pyrimidin-3-yl)-N,N-dimethylacryl-amide] here?
Its IC50 is under 1000 nM.

What about the IC50 (TRK A, B & C kinase) of the same compound?
The IC50 was under 10 nM.

And the IC50 (TF-1 cells)?
Its IC50 is under 100 nM.

Which results are given for `CCNC(=O)/C=C/c1cnn2ccc(N3CCCC3c3cc(F)ccc3F)nc12` (stereo not drawn) [Chemical Compound 41, (E)-3-(5-(2-(2,5-difluorophenyl)pyrrolidin-1-yl)pyrazolo[1,5-a]pyrimidin-3-yl)-N-ethylacrylamide]?
IC50 (KM12-luc cells): < 100 nM; IC50 (TRK A, B & C kinase): < 10 nM; IC50 (TF-1 cells): < 100 nM

Which IC50 (KM12-luc cells) does the source give for `CC(C)NC(=O)/C=C/c1cnn2ccc(N3CCCC3c3cc(F)ccc3F)nc12` (stereo not drawn) [Chemical Compound 42, (E)-3-(5-(2-(2,5-difluorophenyl)-pyrrolidin-1-yl)pyrazolo[1,5-a]pyrimidin-3-yl)-N-isopropylacrylamide] here?
Its IC50 is under 100 nM.

What about the IC50 (TRK A, B & C kinase) of the same compound?
The IC50 was under 10 nM.

What about the IC50 (TF-1 cells) of the same compound?
The IC50 was under 100 nM.

For `O=C(/C=C/c1cnn2ccc(N3CCCC3c3cc(F)ccc3F)nc12)NC1CC1` (stereo not drawn) [Chemical Compound 43, (E)-N-cyclopropyl-3-(5-(2-(2,5-difluorophenyl)pyrrolidin-1-yl)pyrazolo[1,5-a]pyrimidin-3-yl)acrylamide], which IC50 (KM12-luc cells) is on record?
Its IC50 is under 100 nM.

And the IC50 (TRK A, B & C kinase)?
The IC50 was under 10 nM.

And the IC50 (TF-1 cells)?
The IC50 was under 100 nM.

Which results are given for `CC(C)(C)NC(=O)/C=C/c1cnn2ccc(N3CCCC3c3cc(F)ccc3F)nc12` (stereo not drawn) [Chemical Compound 44, (E)-N-tert-butyl-3-(5-(2-(2,5-difluorophenyl)pyrrolidin-1-yl)pyrazolo-[1,5-a]pyrimidin-3-yl)acrylamide]?
IC50 (KM12-luc cells): < 100 nM; IC50 (TRK A, B & C kinase): < 10 nM; IC50 (TF-1 cells): < 100 nM

With `CN(C)C(=O)/C=C/c1cnn2ccc(N3CCCC3c3cc(F)ccc3F)nc12` (stereo not drawn) [Chemical Compound 45, (E)-3-(5-(2-(2,5-difluorophenyl)pyrrolidin-1-yl)pyrazolo[1,5-a]pyrimidin-3-yl)-N,N-dimethylacrylamide] as the compound, how does the IC50 (KM12-luc cells) read?
The IC50 was under 100 nM.

What about the IC50 (TRK A, B & C kinase) of the same compound?
Its IC50 is under 10 nM.

What about the IC50 (TF-1 cells) of the same compound?
Its IC50 is under 100 nM.

Source: patent US9701681B2, “Fused ring heteroaryl compounds and their use as Trk inhibitors” (CMG Pharmaceutical Co., Ltd., priority 2014, dated 2017)
